Experimental data from patent publication US11319283B2, “Substituted cyclobutylbenzene compounds as indoleamine 2,3-dioxygenase (IDO) inhibitors” (MERCK SHARP & DOHME CORP., priority 2017, dated 2022).

Tests used:
Type in all cases: cell-based
[1] = biological target: T1, IDO1 (Homo sapiens, UniProt P14902); test: IDO1 Human Whole Blood Assay; set-up: from tissue; host or cells: human whole blood from healthy donors, stimulated with LPS and IFNγ; settings: LPS and IFNγ 100 ng/mL, overnight (18 h), kynurenine by LC/MS/MS
T1 sequence (P14902 whole entry): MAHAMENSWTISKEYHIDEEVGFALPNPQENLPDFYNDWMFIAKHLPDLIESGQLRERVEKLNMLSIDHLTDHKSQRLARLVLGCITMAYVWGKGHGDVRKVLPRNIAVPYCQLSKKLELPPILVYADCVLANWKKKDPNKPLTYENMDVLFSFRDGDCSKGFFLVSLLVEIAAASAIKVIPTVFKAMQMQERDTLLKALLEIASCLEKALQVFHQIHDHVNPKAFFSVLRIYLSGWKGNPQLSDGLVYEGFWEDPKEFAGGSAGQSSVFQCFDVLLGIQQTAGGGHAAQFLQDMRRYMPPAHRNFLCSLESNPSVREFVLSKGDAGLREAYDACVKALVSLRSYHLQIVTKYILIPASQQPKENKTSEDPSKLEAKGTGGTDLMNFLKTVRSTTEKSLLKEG
Method: IDO1 Human Whole Blood Assay
Compounds to be tested were serially diluted in ten 3-fold steps in DMSO starting from 10 mM. […] LPS and IFNγ was prepared in RPMI to a 10× of final conc. (1000 ng/mL), final concentration is 100 ng/mL.
Human whole blood was drawn in sodium heparin coated tubes from healthy internal donors. […] of blood was transferred to each of the wells of a v-bottom 96 well plate. […] of compound was transferred from intermediate dilution plate, and incubated for 15 min. 30 μL from stimulants was then transferred to blood and mixed thoroughly. Plate was covered with breathable membrane and incubated at 37° C. for overnight (18 h).
On day 2 isotope labeled standard of kynurenine and tryptophan was made in water at 10× concentration and […] was added to the blood at […] final concentration. The assay plates were centrifuged at 300×G for 10 min with no brake to separate plasma from red blood cells. […] of plasma samples was removed without disturbing red blood cells. Plasma was diluted with RPMI in 1:1 ratio and proteins were precipitated out with two volume of Acetonitrile. The plates was centrifuged at 4000×G for 60 min. 20 mL of supernatant was carefully transferred to a 384 well plate contain 40 mL of 0.1% formic acid in water and analyzed by LC/MS/MS.
LC/MS/MS analyses were performed using Thermo Fisher's LX4-TSQ Quantum Ultra system. This system consists of four Agilent binary high-performance liquid chromatography (HPLC) pumps and a TSQ Quantum Ultra triple quadruple MS/MS instrument. For each sample, […] were injected onto an Atlantis T3 column (2.1 mm×150 mm, […]) from Waters. The mobile phase gradient pumped at 0.8 mL/min was used to elute the analytes from the column at 25° C. […] Mobile phase A consisted of 0.1% formic acid in water. Mobile phase B consisted of 0.1% of formic acid in acetonitrile. Data was acquired in positive mode using a HESI interface. The operational parameters for the TSQ Quantum Ultra instrument were a spray voltage of 4000 V, capillary temperature of 380° C., vaporizer temperature 400° C., shealth gas 60 arbitrary units, Aux gas 20 arbitrary units, tube lens 85 and collision gas 1.2 mTorr. […] The peak area was integrated by Xcalibur Quan software. The ratios between the kynurenine generated in the reaction and 2D6-Kynurenine spiked-in internal standard were used to generate percentage inhibition and IC50 values. Compounds were titrated and IC50's were calculated by 4 parameter sigmoidal curve fitting formula.

[2] = biological target: T2, TDO (Homo sapiens, UniProt P48775); test: TDO Cellular Assay in Frozen SW48 Cells; settings: 300 uM L-tryptophan, about 48 hours, fluorescence readout
T2 construct: endogenous in cells; host or cells: SW48 cells (A2780 cells as control with minimal TDO activity)
T2 sequence (P48775 whole entry): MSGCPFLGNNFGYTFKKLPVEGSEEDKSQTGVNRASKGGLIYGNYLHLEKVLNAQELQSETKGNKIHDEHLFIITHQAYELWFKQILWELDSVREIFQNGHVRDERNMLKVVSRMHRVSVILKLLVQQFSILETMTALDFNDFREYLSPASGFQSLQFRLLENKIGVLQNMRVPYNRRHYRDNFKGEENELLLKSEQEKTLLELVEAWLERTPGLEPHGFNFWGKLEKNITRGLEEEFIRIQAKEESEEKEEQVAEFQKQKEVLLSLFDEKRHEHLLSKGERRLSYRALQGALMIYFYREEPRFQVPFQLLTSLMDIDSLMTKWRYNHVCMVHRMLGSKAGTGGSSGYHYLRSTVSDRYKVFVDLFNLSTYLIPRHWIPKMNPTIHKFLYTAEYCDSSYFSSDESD
Method: TDO Cellular Assay in Frozen SW48 Cells
SW48 cells were cultured in complete RPMI culture medium (90% RPMI, 10% heat-inactivated fetal bovine serum).
Compounds to be tested were serially diluted in ten 3-fold steps in DMSO starting from 10 mM DMSO stocks in Echo low volume plate(s). […] The cells were spun down at 350 g in a table top centrifuge for 5 minutes and suspended in same volume of RPMI assay medium. […] Sterile L-tryptophan (Sigma, Cat # T0254) was added to the cells with final concentration of 300 uM.
SW48 and A2780 cells were dispensed to the respective wells of 384-well assay plates containing the compounds. The plates were incubated for about 48 hours at a 37° C., 5% CO2 incubator. Afterwards, 12 μL of 0.5 M ethyl isonipecotate (Sigma Aldrich, Cat # E33505) in dimethyl sulfoxide were added into each well and the plates were sealed and incubated at 37° C. without CO2 overnight. The plates were centrifuged for 1 minute at 200×g. The resulting fluorescence was measured in a Spectramax plate reader (Molecular Devices) with a 400 nm excitation filter and a 510 nm emission filter.
The fluorescence intensity of each well was corrected for the background observed in wells with A2780 cells and was expressed as a fraction of the intensity observed in wells of SW48 cells and DMSO only. Potencies were calculated by linear least squares fit to the four parameter logistic IC50 equation.

[3] = biological target: T1, IDO1; test: IDO1 Cellular Assay in Hela Cells Stimulated with IFNγ; set-up: endogenous in cells; host or cells: HeLa cells stimulated with IFNγ (100 ng/mL); settings: Hela cells stimulated with IFNγ 100 ng/mL, 300 uM L-tryptophan, about 48 hours, fluorescence readout
Method: IDO1 Cellular Assay in Hela Cells Stimulated with IFNγ
Hela cells were cultured in complete Hela culture medium (90% EMEM, 10% heat-inactivated fetal bovine serum) and expanded to about 1×10^9 cells. The cells were then collected and frozen down at 1×10^7 cells/vial in 1 mL frozen medium (90% complete Hela culture medium, 10% DMSO)
Compounds to be tested were serially diluted in ten 3-fold steps in DMSO starting from 10 mM DMSO stocks in Echo low volume plate(s).
Frozen Hela cells were thawed and transferred into Hela assay medium (99% complete Hela culture medium, 1% Pen/Strep) with 20 mL medium/vial of cells. The cells were spun down at 250 g in a table top centrifuge for 5 min and suspended in same volume of Hela assay medium. The cells were then counted and adjusted to a density of 2×10^5 cells/ml in Hela assay medium. Sterile L-tryptophan were added to the cells with final concentration of 300 uM L-tryptophan. A small aliquot (2 mL/plate) of Hela cells were set aside and were not treated with IFNγ, to serve as the Max-E control.
Hela cells with and without IFNγ were dispensed to the respective wells of 384-well assay plates containing the compounds. The plates were incubated for about 48 hours at a 37° C., 5% CO2 incubator. Afterwards, […] of 0.5 M methyl isonipecotate in dimethyl sulfoxide were added into each well and the plates were sealed and incubated at 37° C. without CO2 overnight. The plates were centrifuged for 1 min at 200×g. The resulting fluorescence was measured in a Spectramax plate reader (Molecular Devices) with a 400 nm excitation filter and a 510 nm emission filter.
Potencies were calculated by linear least squares fit to the four parameter logistic IC50 equation.

| Structure (SMILES) | IC50 [1] [nM] | IC50 [2] [nM] | IC50 [3] [nM] |
| --- | --- | --- | --- |
| O=C(Nc1ccc(C2(C(=O)Nc3ccc(F)cc3)CC(F)(F)C2)cc1)c1cc(Cl)ccn1 [Example 74, 4-chloro-N-(4-{3,3-difluoro-1-[(4-fluorophenyl)carbamoyl]cyclobutyl}phenyl) pyridine-2-carboxamide] | – | ≥ 10000 | 5 |
| O=C(Nc1ccc(C2(C(=O)Nc3ccc(F)cc3)CC(F)(F)C2)cc1)c1cncc(Cl)c1 [Example 75, 5-chloro-N-(4-{3,3-difluoro-1-[(4-fluorophenyl)carbamoyl]cyclobutyl}phenyl) pyridine-3-carboxamide] | – | ≥ 10000 | 10 |
| CCCNC(=O)C1(c2ccc(NC(=O)c3ccc(F)c(Cl)c3)cc2)CCC1 [Example 78, 3-chloro-4-fluoro-N-{4-[1-(propylcarbamoyI)cyclobutyl]phenyl}benzamide] | – | ≥ 10000 | 10 |
| CCCNC(=O)C1(c2ccc(NC(=O)c3cc(F)cc(Cl)c3)cc2)CCC1 [Example 79, 3-chloro-5-fluoro-N-{4-[1-(propylcarbamoyl)cyclobutyl]phenyl}benzamide] | – | ≥ 10000 | 11 |
| CCCNC(=O)C1(c2ccc(NC(=O)c3cc(Cl)cc(Cl)c3)cc2)CCC1 [Example 80, 3,5-dichloro-N-{4-[1-(propylcarbamoyl)cyclobutyl]phenyl}benzamide] | – | ≥ 10000 | 12 |
| CCCNC(=O)C1(c2ccc(NC(=O)c3ccc(Cl)c(Cl)c3)cc2)CCC1 [Example 81, 3,4-dichloro-N-{4-[1-(propylcarbamoyl)cyclobutyl]phenyl}benzamide] | – | ≥ 10000 | 13 |
| O=C(Nc1ccc(C2(C(=O)NCCC(F)(F)F)CCC2)cc1F)c1cccc(Cl)c1 [Example 82, 3-Chloro-N-(2-fluoro-4-(1-((3,3,3-trifluoropropyl)carbamoyl)cyclobutyl)phenyl)benzamide] | – | ≥ 10000 | 117 |
| O=C(Nc1ccc(C2(C(=O)NCCC(F)(F)F)CCC2)cc1CO)c1cccc(Cl)c1 [Example 83, 3-Chloro-N-(2-(hydroxymethyl)-4-(1-((3,3,3-trifluoropropyl)carbamoyl)cyclobutyl)phenyl)benzamide] | – | ≥ 10000 | 128 |
| CC(C)(C)/N=C/c1cc(C2(C(=O)NCCC(F)(F)F)CCC2)ccc1NC(=O)c1cccc(Cl)c1 [Example 84, N-(2-[(E)-(tert-butylimino)melhyl]-4-{1-[(3,3,3-trifluoropropyl)carbamoyl]cyclobutyl}phenyl)-3-chlorobenzamide] | – | ≥ 10000 | 176 |
| CCCNC(=O)C1(c2ccc(NC(=O)C3Cc4ccccc43)cc2)CCC1 (stereo not drawn) [Example 87, N-{4-[1-(propylcarbamoyl)cyclobutyl]phenyl}bicyclo[4.2.0]octa-1,3,5-triene-7-carboxamide] | – | ≥ 10000 | 1050 |

The remaining lines, values ahead:

| IC50 [1] [nM] | IC50 [2] [nM] | IC50 [3] [nM] | Structure (SMILES) |
| --- | --- | --- | --- |
| 797 | ≥ 10000 | 7 | CC1CC1NC(=O)C1(c2ccc(NC(=O)c3cccc(Cl)c3)cc2)CCC1 (single isomer, unassigned) [Example 21, 3-chloro-N-(4-(1-((2-methylcyclopropyl)carbamoyl)cyclobutyl)phenyl)benzamide] |
| 186 | ≥ 10000 | 3 | N#Cc1ccc(C(=O)NC2(c3ccc(NC(=O)c4cccc(Cl)c4)cc3)CCC2)cc1 [Example 2, 3-Chloro-N-(4-(1-(4-cyanobenzamido)cyclobutyl)phenyl)benzamide] |
| – | ≥ 10000 | 71 | CCOC1CC1NC(=O)C1(c2ccc(NC(=O)c3cccc(Cl)c3)cc2)CC(F)(F)C1 (stereo not drawn) [Example 65] |
| – | ≥ 10000 | 89 | CCO[C@H]1C[C@H]1NC(=O)C1(c2ccc(NC(=O)c3cccc(Cl)c3)cc2)CC(F)(F)C1 [Example 66, 3-chloro-N-[4-(1-{[(1R,2S)-2-ethoxycyclopropyl]carbamoyl}-3,3-difluorocyclobutyl)phenyl] benzamide] |
| – | ≥ 10000 | 207 | CCO[C@H]1C[C@@H]1NC(=O)C1(c2ccc(NC(=O)c3cccc(Cl)c3)cc2)CC(F)(F)C1 [Example 67, 3-chloro-N-[4-(1-{[(lS,2S)-2-ethoxycyclopropyl]carbamoyl}-3,3-difluorocyclobutyl)phenyl] benzamide] |
| – | ≥ 10000 | 1440 | CCO[C@@H]1C[C@H]1NC(=O)C1(c2ccc(NC(=O)c3cccc(Cl)c3)cc2)CC(F)(F)C1 [Example 68, 3-chloro-N-[4-(1-{[(1R,2R)-2-ethoxycyclopropyl]carbamoyl}-3,3-difluorocyclobutyl)phenyl] benzamide] |
| – | ≥ 10000 | 56 | O=C(Nc1ccc(C2(C(=O)NCCC(F)(F)F)CC(F)(F)C2)cc1)c1cccc(Cl)c1 [Example 69, 3-chloro-N-(4-{3,3-difluoro-1-[(3,3,3-trifluoropropyl)carbamoyl]cyclobutyl}phenyl) benzamide] |
| – | ≥ 10000 | 4 | O=C(Nc1ccc(C2(C(=O)Nc3ccc(F)cc3)CC(F)(F)C2)cc1)c1cccc(F)c1 [Example 72, N-(4-(3,3-Difluoro-1-((4-fluorophenyl)carbamoyl)cyclobutyl)phenyl)-3-fluorobenzamide] |
| – | ≥ 10000 | 4 | N#Cc1cccc(C(=O)Nc2ccc(C3(C(=O)Nc4ccc(F)cc4)CC(F)(F)C3)cc2)c1 [Example 73, 3-cyano-N-(4-{3,3-difluoro-1-[(4-fluorophenyl)carbamoyl]cyclobutyl}phenyl) benzamide] |
| – | 7640 | 20 | O=C(Nc1ccc(C2(C(=O)Nc3ccc(F)cc3)CC(F)(F)C2)cc1)c1ccnc(C(F)(F)F)c1 [Example 76, N-(4-{3,3-difluoro-1-[(4-fluorophenyl)carbamoyl]cyclobutyl}phenyl)-2-(trifluoromethyl) pyridine-4-carboxamide] |
